For this assay, the target named is T1, GST-RIPK1 (recombinant GST-RIPK1 kinase domain (residues 1-327)) (Homo sapiens, UniProt Q13546).
T1 construct: recombinant GST-RIPK1 kinase domain (residues 1-327) enzyme produced from baculovirus-transfected Sf21 cells; host or cells: baculovirus-transfected Sf21 insect cells
T1 sequence (Q13546 1-327): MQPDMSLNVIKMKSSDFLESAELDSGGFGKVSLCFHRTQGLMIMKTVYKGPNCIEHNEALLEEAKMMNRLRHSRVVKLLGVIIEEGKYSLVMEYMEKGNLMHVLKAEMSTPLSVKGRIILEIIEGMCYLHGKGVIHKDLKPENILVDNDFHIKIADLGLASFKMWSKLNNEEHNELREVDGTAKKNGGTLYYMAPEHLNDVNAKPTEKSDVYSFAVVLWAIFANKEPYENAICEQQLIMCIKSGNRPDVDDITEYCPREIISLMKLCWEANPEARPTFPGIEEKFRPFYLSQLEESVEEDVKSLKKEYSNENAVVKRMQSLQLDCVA
Kind of assay: RIPK1-ADP-Glo Enzymatic Assay. The class given is biochemical. Particulars: ten-point titration, top compound concentration of 100000 nM; 25 nM GST-RIPK1, 300 μM ATP, 3 μM dephosphorylated-MBP; 30 min pre-incubation, 150 min reaction. As to the method: RIPK1-ADP-Glo Enzymatic Assay
The enzymatic activity of RIPK1 is measured using an assay derived from ADP-Glo kit (TMPromega), which provides a luminescent-based ADP detection system. Specifically, the ADP generated by RIPK1 kinase is proportionally detected as luminescent signals in a homogenous fashion. In this context, the assessment of the inhibitory effect of small molecules (EC50) is measured by the effectiveness of the compounds to inhibit the ATP to ADP conversion by RIPK1.
In this assay, the potency (EC50) of each compound was determined from a ten-point (1:3 serial dilution; top compound concentration of 100000 nM) titration curve using the following outlined procedure. To each well of a white ProxiPlus 384 well-plate, 30 nL of compound (1% DMSO in final assay volume of 3 μL) was dispensed, followed by the addition of 2 μL of 1× assay buffer (25 mM Hepes 7.3, 20 mM MgCl2, 50 mM NaCl, 1 mM DTT, 0.005% Tween20, and 0.02% BSA) containing 37.5 nM of GST-RIPK1 (recombinant GST-RIPK1 kinase domain (residues 1-327) enzyme produced from baculovirus-transfected Sf21 cells: MW=62 kDa). Plates were placed in an ambient temperature humidified chamber for a 30 minutes pre-incubation with compound. Subsequently, each reaction was initiated by the addition of 1 μL 1× assay buffer containing 900 μM ATP and 3 μM dephosphorylated-MBP substrate. The final reaction in each well of 3 μL consists of 25 nM of GST-RIPK1, 300 μM ATP, and 3 μM dephosphorylated-MBP. Kinase reactions were allowed to proceed for 150 minutes prior to adding ADP-Glo reagents per Promega's outlined kit protocol. Dose-response curves were generated by plotting percent effect (% product conversion; Y-axis) vs. Log 10 compound concentrations (X-axis). EC50 values were calculated using a non-linear regression, four-parameters sigmoidal dose-response model.
(In ADP-Glo the light output rises with the ADP produced.)

For the molecule `O=C1N2C(CC[C@H]2c2cnccn2)OC12CC(OCc1ccc(N3CCOCC3)nc1)C2` (stereo partly drawn) [Example 18.35, (5′S)-3-{[6-(morpholin-4-yl)pyridin-3-yl]methoxy}-5′-(pyrazin-2-yl)tetrahydro-3′H-spiro[cyclobutane-1,2′-pyrrolo[2,1-b][1,3]oxazol]-3′-one], the EC50 – broadly, the concentration at which the effect is half-maximal – came to 14 nM.

`O=C1N2[C@@H](CC[C@H]2c2cnccn2)O[C@]12C[C@@H](OCc1ccccc1Cl)C2` [Example 22.1, (1S,3S,5′S,7a′R)-3-((2-chlorobenzyl)oxy)-5′-(pyrazin-2-yl)tetrahydro-3′H-spiro[cyclobutane-1,2′-pyrrolo[2,1-b]oxazol]-3′-one]: the EC50 came to 18 nM. Turning to `Cc1cn(-c2cc(OC3CC4(C3)O[C@@H]3CC[C@@H](c5cc(F)cc(F)c5)N3C4=O)ncn2)cn1` (stereo partly drawn) [Example 9.11, (5′S,7a′R)-5′-(3,5-difluorophenyl)-3-{[6-(4-methyl-1H-imidazol-1-yl)pyrimidin-4-yl]oxy}tetrahydro-3′H-spiro[cyclobutane-1,2′-pyrrolo[2,1-b][1,3]oxazol]-3′-one], the EC50 is 21 nM.

In the case of `O=C1N2[C@@H](CC[C@H]2c2cnccn2)O[C@]12C[C@@H](Oc1cccnc1)C2` [Example 19.1, (5′S,7a′R)-5′-(pyrazin-2-yl)-3-(pyridin-3-yloxy)tetrahydro-3′H-spiro[cyclobutane-1,2′-pyrrolo[2,1-b]oxazol]-3′-one], the EC50 is 31 nM. As for `O=C1N2[C@@H](CC[C@H]2c2cnccn2)OC12CC(OCC1CCCC1)C2` (single isomer, unassigned) [Example 23.4, (5′S,7a′R)-3-(cyclopentylmethoxy)-5′-(pyrazin-2-yl)tetrahydro-3′H-spiro[cyclobutane-1,2′-pyrrolo[2,1-b]oxazol]-3′-one], the EC50 amounted to 649 nM.

Take `Cn1nccc1-c1cc(O[C@H]2C[C@@]3(C2)O[C@@H]2CC[C@@H](c4cc(F)cc(F)c4)N2C3=O)ncn1` [Example 9.55, (5′S,7a′R)-5′-(3,5-difluorophenyl)-3-((6-(1-methyl-1H-pyrazol-5-yl)pyrimidin-4-yl)oxy)tetrahydro-3′H-spiro[cyclobutane-1,2′-pyrrolo[2,1-b]oxazol]-3′-one]: the EC50 is 13 nM. On to `N#Cc1cccc(OC2CC3(C2)O[C@@H]2CC[C@@H](c4cnccn4)N2C3=O)c1` (stereo partly drawn) [Example 19.15, 3-{[(5′S,7a′R)-3′-oxo-5′-(pyrazin-2-yl)tetrahydro-3′H-spiro[cyclobutane-1,2′-pyrrolo[2,1-b][1,3]oxazol]-3-yl]oxy}benzonitrile], for which the 50% effective concentration (EC50) amounted to 18 nM. For `O=C1N2C(CC[C@H]2c2cnccn2)OC12CC(OCc1csc(C3CC3)n1)C2` (stereo partly drawn) [Example 18.71, (5′S)-3-[(2-cyclopropyl-1,3-thiazol-4-yl)methoxy]-5′-(pyrazin-2-yl)tetrahydro-3′H-spiro[cyclobutane-1,2′-pyrrolo[2,1-b][1,3]oxazol]-3′-one], the EC50 was determined as 796 nM. Regarding `O=C1N2C(CC[C@H]2c2cnccn2)OC12CC(OCc1ccc3nc(C4CC4)cn3c1)C2` (stereo partly drawn) [Example 18.73, (5′S)-3-[(2-cyclopropylimidazo[1,2-a]pyridin-6-yl)methoxy]-5′-(pyrazin-2-yl)tetrahydro-3′H-spiro[cyclobutane-1,2′-pyrrolo[2,1-b][1,3]oxazol]-3′-one], the EC50 turned out to be 111 nM. The figure for `O=C1N2C(CC[C@H]2c2cnccn2)OC12CC(OCc1ccc3c(c1)CCO3)C2` (stereo partly drawn) [Example 18.108, (5′S)-3-((2,3-dihydrobenzofuran-5-yl)methoxy)-5′-(pyrazin-2-yl)tetrahydro-3′H-spiro[cyclobutane-1,2′-pyrrolo[2,1-b]oxazol]-3′-one] is 94 nM; for `O=C1N2[C@@H](CC[C@H]2c2cc(F)cc(F)c2)OC12CC(Oc1ccccc1)C2` (single isomer, unassigned) [Example 16.2, ((1r or s),3R,5′S,7a′R)-5′-(3,5-difluorophenyl)-3-phenoxytetrahydro-3′H-spiro[cyclobutane-1,2′-pyrrolo[2,1-b]oxazol]-3′-one] it is 29 nM. The result for `O=C1N2[C@@H](CC[C@H]2c2cnccn2)OC12CC(OCC1CCCC1)C2` (single isomer, unassigned) [Example 23.3, (5′S,7a′R)-3-(cyclopentylmethoxy)-5′-(pyrazin-2-yl)tetrahydro-3′H-spiro[cyclobutane-1,2′-pyrrolo[2,1-b]oxazol]-3′-one] reads 316 nM; that for `O=C1N2C(CC[C@H]2c2cnccn2)OC12CC(OCc1cccc(Cn3ccnn3)c1)C2` (stereo partly drawn) [Example 18.26, (5′S)-5′-(pyrazin-2-yl)-3-({3-[(1H-1,2,3-triazol-1-yl)methyl]phenyl}methoxy) tetrahydro-3′H-spiro[cyclobutane-1,2′-pyrrolo[2,1-b][1,3]oxazol]-3′-one], 34 nM. In the case of `O=C1N2C(CC[C@H]2c2cnccn2)OC12CC(OCc1cc3cncnc3s1)C2` (stereo partly drawn) [Example 18.20, (5′S)-5′-(pyrazin-2-yl)-3-[(thieno[2,3-d]pyrimidin-6-yl)methoxy]tetrahydro-3′H-spiro[cyclobutane-1,2′-pyrrolo[2,1-b][1,3]oxazol]-3′-one], the EC50 is 22 nM. The figure for `O=C1N2C(CC[C@H]2c2cnccn2)OC12CC(OCc1cnn(C3CC3)c1)C2` (stereo partly drawn) [Example 18.3, (5′S)-3-[(1-cyclopropyl-1H-pyrazol-4-yl)methoxy]-5′-(pyrazin-2-yl)tetrahydro-3′H-spiro[cyclobutane-1,2′-pyrrolo [2,1-b][1,3]oxazol]-3′-one] is 969 nM. The figure for `N#Cc1cc(O[C@H]2C[C@]3(C2)O[C@@H]2CC[C@@H](c4ccccc4F)N2C3=O)ncn1` [Example 9.43, 6-{[(5′S,7a′R)-5′-(2-fluorophenyl)-3′-oxotetrahydro-3′H-spiro[cyclobutane-1,2′-pyrrolo[2,1-b][1,3]oxazol]-3-yl]oxy}pyrimidine-4-carbonitrile] is 353 nM. Turning to `Cn1ccc([C@@H]2CC[C@H]3OC4(CC(Oc5cccnc5)C4)C(=O)N32)n1` (stereo partly drawn) [Example 19.11, (5′S,7a′R)-5′-(1-methyl-1H-pyrazol-3-yl)-3-[(pyridin-3-yl)oxy]tetrahydro-3′H-spiro[cyclobutane-1,2′-pyrrolo[2,1-b][1,3]oxazol]-3′-one], the EC50 came to 209 nM. The result for `N#Cc1cccc(OC2CC3(C2)O[C@@H]2CC[C@@H](c4ccccc4)N2C3=O)c1` (stereo partly drawn) [Example 8.5, 3-{[(5′S,7a′R)-3′-oxo-5′-phenyltetrahydro-3′H-spiro[cyclobutane-1,2′-pyrrolo[2,1-b][1,3]oxazol]-3-yl]oxy}benzonitrile] reads 20 nM; that for `O=C1N2C(CC[C@H]2c2cnccn2)OC12CC(OCc1nnc(Cc3ccccc3)s1)C2` (stereo partly drawn) [Example 18.64, (5′S)-3-[(5-benzyl-1,3,4-thiadiazol-2-yl)methoxy]-5′-(pyrazin-2-yl)tetrahydro-3′H-spiro[cyclobutane-1,2′-pyrrolo[2,1-b][1,3]oxazol]-3′-one], 122 nM; that for `O=C1N2[C@@H](CC[C@H]2c2cc(F)cc(F)c2)OC12CC(Oc1ccccc1)C2` (single isomer, unassigned) [Example 16.1, ((1s or r),3R,5′S,7a′R)-5′-(3,5-difluorophenyl)-3-phenoxytetrahydro-3′H-spiro[cyclobutane-1,2′-pyrrolo[2,1-b]oxazol]-3′-one], 30 nM. The figure for `O=C1N2[C@@H](CC[C@H]2c2cnccn2)OC12CC(OCC1CCC1)C2` (single isomer, unassigned) [Example 23.1, (5′S,7a′R)-3-(cyclobutylmethoxy)-5′-(pyrazin-2-yl)tetrahydro-3′H-spiro[cyclobutane-1,2′-pyrrolo[2,1-b]oxazol]-3′-one] is 460 nM; for `O=C1N2C(CC[C@H]2c2cnccn2)OC12CC(OCc1cccc3cncc(F)c13)C2` (stereo partly drawn) [Example 18.21, (5′S)-3-[(4-fluoroisoquinolin-5-yl)methoxy]-5′-(pyrazin-2-yl)tetrahydro-3′H-spiro[cyclobutane-1,2′-pyrrolo[2,1-b][1,3]oxazol]-3′-one] it is 32 nM. Turning to `O=C1N2[C@@H](CC[C@H]2c2ccccc2)OC12CC(Oc1cccc3cnoc13)C2` (some centres unmarked) [Example 8.19], the EC50 worked out at 254 nM.

For the origin of these results see patent US20250154173A1 (Merck Sharp & Dohme LLC, priority 2023, published 2025).
